Like-named read-outs stand apart in the source and are kept apart here.
Tests used:
Type in all cases: biochemical
[1] = biological target: bovine plasma amine oxidase (BPAO) (Bos taurus (Bovine), UniProt Q29437); experiment: Inactivation of bovine plasma amine oxidase (benzylamine oxidation rate, absorbance at 250 nm)
Procedure: The rate of oxidation of benzylamine to benzaldehyde was measured by recording the increase in absorbance at 250 nm for 1 minute and compared to the rate of benzylamine oxidation in a companion control solution of enzyme without inhibitor. The concentration of active BPAO was estimated from the rate of benzylamine oxidation. Inhibitory potency values (IC50 values) and partition values for inactivation of BPAO were measured at various times as in indicated in the Tables. IC50 values for lysyl oxidase (LO), arthrobacter globoformis amine oxidase (AGAO) and pichia pastoris lysyl oxidase (PPLO) were also measured in a similar manner.

lysyl oxidase (LO) = lysyl oxidase (LO) (Homo sapiens (Human), UniProt P28300); experiment: Lysyl oxidase inhibition; settings: for IC75: 20 min, assay performed at Boston University; for IC50 (BPAO)/IC75(LO): ratio BPAO over LO
Procedure: (§1) In the following Examples, 0.9 mL aliquots of a solution of candidate inhibitor in 100 mM potassium phosphate buffer, pH 7.2 was mixed bovine plasma amine oxidase (0.1 mL, about […]) and incubated at 30° C. aerobically. Aliquots (0.1 mL) were periodically withdrawn using disposable calibrated Drummond micropipettes and diluted with 1.0 mL of benzylamine (5 mM in 50 mM sodium phosphate buffer, pH 7.2) in a 1 cm quartz cuvette (1.5 mL volume). The rate of oxidation of benzylamine to benzaldehyde was measured by recording the increase in absorbance at 250 nm for 1 minute and compared to the rate of benzylamine oxidation in a companion control solution of enzyme without inhibitor. The concentration of active BPAO was estimated from the rate of benzylamine oxidation. Inhibitory potency values (IC50 values) and partition values for inactivation of BPAO were measured at various times as in indicated in the Tables. IC50 values for lysyl oxidase (LO), arthrobacter globoformis amine oxidase (AGAO) and pichia pastoris lysyl oxidase (PPLO) were also measured in a similar manner.

[2] = biological target: arthrobacter globiformis amine oxidase (AGAO) (Arthrobacter globiformis, UniProt P46881); experiment: Arthrobacter globiformis amine oxidase inhibition
Procedure: as §1

[3] = biological target: pichia pastoris lysyl oxidase (PPLO) (Komagataella pastoris (Yeast) (Pichia pastoris), UniProt Q96X16); experiment: Pichia pastoris lysyl oxidase inhibition; settings: 30 min
Procedure: as §1

Chain of lysyl oxidase (LO) (P28300 169-417, species assumed): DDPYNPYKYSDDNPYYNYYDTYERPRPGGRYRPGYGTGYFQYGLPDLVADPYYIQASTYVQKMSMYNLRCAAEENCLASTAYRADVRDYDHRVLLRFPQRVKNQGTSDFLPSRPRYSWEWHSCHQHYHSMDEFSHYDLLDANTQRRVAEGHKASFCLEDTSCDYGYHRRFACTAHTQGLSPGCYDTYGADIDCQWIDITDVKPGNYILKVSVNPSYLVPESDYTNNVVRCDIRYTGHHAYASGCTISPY
Chain of bovine plasma amine oxidase (BPAO) (Q29437 17-762): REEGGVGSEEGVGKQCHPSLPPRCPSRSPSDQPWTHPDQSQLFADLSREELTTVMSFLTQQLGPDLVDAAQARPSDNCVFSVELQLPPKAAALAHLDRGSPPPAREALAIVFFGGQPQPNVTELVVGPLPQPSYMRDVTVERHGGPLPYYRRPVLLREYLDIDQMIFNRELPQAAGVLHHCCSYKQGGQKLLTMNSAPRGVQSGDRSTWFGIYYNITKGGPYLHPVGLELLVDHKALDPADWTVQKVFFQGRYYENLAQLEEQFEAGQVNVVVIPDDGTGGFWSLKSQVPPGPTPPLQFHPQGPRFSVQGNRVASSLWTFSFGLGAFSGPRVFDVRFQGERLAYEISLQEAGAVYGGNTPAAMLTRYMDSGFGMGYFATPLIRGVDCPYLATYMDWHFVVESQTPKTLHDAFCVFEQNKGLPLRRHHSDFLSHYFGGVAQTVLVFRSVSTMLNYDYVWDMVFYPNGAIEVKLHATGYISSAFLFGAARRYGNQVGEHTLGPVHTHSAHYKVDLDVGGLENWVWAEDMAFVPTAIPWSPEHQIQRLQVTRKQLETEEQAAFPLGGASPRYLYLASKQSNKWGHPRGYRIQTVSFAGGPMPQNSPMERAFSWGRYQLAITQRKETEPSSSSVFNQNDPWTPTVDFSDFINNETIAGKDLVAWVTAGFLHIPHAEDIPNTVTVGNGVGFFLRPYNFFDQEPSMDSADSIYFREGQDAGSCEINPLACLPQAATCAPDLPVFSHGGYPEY
Chain of pichia pastoris lysyl oxidase (PPLO) (Q96X16 entry or part of it): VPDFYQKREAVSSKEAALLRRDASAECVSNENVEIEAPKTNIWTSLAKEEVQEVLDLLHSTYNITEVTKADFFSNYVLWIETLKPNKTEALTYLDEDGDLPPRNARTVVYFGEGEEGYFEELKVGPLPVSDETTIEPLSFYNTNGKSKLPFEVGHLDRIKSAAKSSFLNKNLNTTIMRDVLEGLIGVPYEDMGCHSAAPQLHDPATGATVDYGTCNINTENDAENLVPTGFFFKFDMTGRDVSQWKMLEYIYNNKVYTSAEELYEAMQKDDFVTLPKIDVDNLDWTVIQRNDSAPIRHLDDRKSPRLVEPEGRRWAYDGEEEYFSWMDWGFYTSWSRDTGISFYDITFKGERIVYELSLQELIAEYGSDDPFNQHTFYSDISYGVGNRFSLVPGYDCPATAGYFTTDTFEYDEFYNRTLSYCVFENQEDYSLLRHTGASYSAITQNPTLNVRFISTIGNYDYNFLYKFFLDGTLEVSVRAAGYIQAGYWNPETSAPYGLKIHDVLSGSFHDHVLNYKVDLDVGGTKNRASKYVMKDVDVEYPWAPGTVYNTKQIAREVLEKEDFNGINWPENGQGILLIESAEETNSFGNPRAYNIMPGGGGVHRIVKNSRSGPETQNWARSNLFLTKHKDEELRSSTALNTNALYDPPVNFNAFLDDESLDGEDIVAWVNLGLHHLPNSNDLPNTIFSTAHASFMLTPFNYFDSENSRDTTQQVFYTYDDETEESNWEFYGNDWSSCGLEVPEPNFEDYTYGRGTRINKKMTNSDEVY

Structure (SMILES)	IC50 [1]	IC75 (lysyl oxidase (LO))	IC50 (BPAO)/IC75(LO) (lysyl oxidase (LO))	IC50 ([2]; determined on the basis of reversible competitive inhibition, read-out: IC50 (30 min) AGAO)	IC50 [3]	IC50 ([2]; 30 min)
CCN(CC)C(=O)C(N)CC#CCN (stereo not shown) [R = NEt2]	10000 µM	250 µM	40	7 µM	5000 µM	–
NCC#CCC(N)C(=O)NCCc1ccccc1 (stereo not shown) [R = NHCH2CH2Ph]	1800 µM	450 µM	1.11	–	–	250 µM
CCOC(=O)CNC(=O)CNC(=O)C(N)CC#CCN (stereo not shown) [R = NHCH2CONHCH2COOEt]	90 µM	650 µM	0.14	–	–	3500 µM

— patent publication US9161922B2, “Amine oxidase inhibitors” (Case Western Reserve University, priority 2005, dated 2015)
